Measured values taken from article PMC7397336, “5-(4H)-Oxazolones and Their Benzamides as Potential Bioactive Small Molecules” (Molecules, 2020).
Values joined by “and” are separate entries in the source; they are usually repeats but may differ in a detail not shown here. Identical values can stand only once. Marks after values point to notes of the source that are not given here.

Key:
[1] = tested on: acetic acid induced writhing; assay: Anti-nociception, acetic acid writhing test; type: in vivo, Fisher 344 rats; conditions: 0.0057 mmol/kg body weight i.p., 0.6% acetic acid
Excerpt: The animals (Fisher 344 rats), which have been bred in our laboratory, were housed under standard conditions and received a diet of commercial food pellets and water ad libitum during the maintenance but they were entirely fasted during the experiment period. Both sexes were used while females pregnant were excluded. Each group was composed of 6–15 animals. Our studies were in accordance with recognized guidelines on animal experimentation (guidelines for the care and use of laboratory animals published by the Greek Government 160/1991, based on EU regulations 86/609). Rats were kept in the Centre of the School of Veterinary Medicine (EL54 BIO42), Aristotle University of Thessaloniki, which is registered by the official state veterinary authorities (presidential degree 56/2013, in harmonization with the European Directive 2010/63/EEC). The experimental protocols were approved by the Animal Ethics Committee of the Prefecture of Central Macedonia (no. 270079/2500). In order to study the analgesic activity of the tested compound, pain is provoked with acetic acid. Three groups for each compound were used with five animals per group. We followed our previous presented method. After treatment with the tested compounds (0.0057 mmol/kg body weight; intraperitoneally) in group 1, 2nd group was used as a positive control (aspirin; 0.0057 mmol/kg body weight i.p.) and another group (3rd) served as the control in which saline was administered (negative control). After 30 min, 0.6% acetic acid (1 mL/kg body weight) was injected i.p. The number of writhes was recorded for each animal every 5 min during a subsequent 30 min period.

[2] = tested on: carrageenin-induced rat paw edema; assay: Inhibition of the carrageenin-induced rat paw edema; type: in vivo, Fisher 344 rats; conditions: 0.0057 mmol/kg body weight i.p., 3.5 h after carrageenin
Method: For the estimation of anti-inflammatory potential of the tested compounds the rat carrageenin induced paw edema assay was employed as a model for acute inflammation. Indomethacin, as a reference drug, and our compounds were administered intraperitoneally in order to ensure systemic response via fast bioavailability, while carrageenin’s intradermal administration, as inflammatory agent, aimed to local response. The development of the edema induced by carrageenin has been described as a biphasic event. The early phase of the inflammatory response, lasting 0.5–1.5 h, is chiefly mediated by histamine and serotonin release inducing hyperalgesia, swelling and redness, while the later phase, lasting 3–6 h, is sustained presumably by prostaglandin release. This model reliably predicts the anti-inflammatory efficacy of the NSAIDs during the second phase, since non-steroidal anti-inflammatory drugs (NSAIDs) present weak activity in the first phase. Therefore, using this protocol we could evaluate our compounds as potential anti-inflammatory agents, as a result of inhibition of prostaglandin amplification.
The animals (Fisher 344 rats), which have been bred in our laboratory, were housed under standard conditions and received a diet of commercial food pellets and water ad libitum during the maintenance but they were entirely fasted during the experiment period. Both sexes were used while females pregnant were excluded. Each group was composed of 6–15 animals. Our studies were in accordance with recognized guidelines on animal experimentation (guidelines for the care and use of laboratory animals published by the Greek Government 160/1991, based on EU regulations 86/609). […]
Edema was induced in the right hind paw of the rats by the intradermal injection of 0.1 mL 2% carrageenin in water we followed our previous published method. […] The change in paw weight was compared with that in control animals (treated with water) and expressed as a percent inhibition of the edema CPE % values. […]

[3] = biological target: T1, trypsin (Bos taurus, UniProt P00760); assay: Inhibition of trypsin induced proteolysis; type: biochemical
T1 sequence (P00760 24-246): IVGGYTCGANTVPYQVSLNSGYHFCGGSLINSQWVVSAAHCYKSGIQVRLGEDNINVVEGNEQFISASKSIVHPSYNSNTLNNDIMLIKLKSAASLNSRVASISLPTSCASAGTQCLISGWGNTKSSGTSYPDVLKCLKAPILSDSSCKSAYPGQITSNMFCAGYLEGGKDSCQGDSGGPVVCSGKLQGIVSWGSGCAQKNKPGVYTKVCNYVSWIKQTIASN
Method: (§1) Each in vitro experiment was performed at least in triplicate and the standard deviation of absorbance was less than 10% of the mean. For the in vitro assays, a stock solution (1% DMSO in the appropriate buffer with the tested compound diluted under sonification) was prepared from which several dilutions were made with the appropriate buffer.
The tested compounds (10 µL) were dissolved in DMSO (final concentration 100 µM), with phosphate buffer (pH = 7.6) to give 0.005–0.1 mM solutions, and 100 µL trypsin (1 mg/10 mL) were preincubated at 37 °C for 30 min. Then, 200 µL of albumin (6 mg in 3 mL of distilled water) was added and incubated again at 37 °C for 24 h. After the incubation 1 mL trichloroacetic acid (5% w/w) was added to terminate the reaction. The mixture is centrifugated, the water layer is collected and monitored at 280 nm.

[4] = Inhibition of linoleic acid lipid peroxidation (AAPH)
Excerpt: Azo compounds, like AAPH, generating free radicals through spontaneous thermal decomposition are useful for in vitro studies of free radical production. Production of conjugated diene hydroperoxide by oxidation of sodium linoleate in an aqueous solution is monitored at 234 nm. This assay can be used to follow oxidative changes and to understand the contribution of each tested compound. […] It seems that the presence of moiety Ar (Scheme 1) is mainly correlated with the antioxidant result. The nature of the heteroatom O/S in Ar substituent in the 5-membered oxazolone ring (compounds 2c and 2e) influences the biological response. The replacement of the thienyl group in 2c by a furyl group (2e) leads to a 31% decrease of the antioxidant ability.
as §1
The AAPH-induced oxidation of linoleic acid measures the ability of an antioxidant to prevent oxidation of linoleic acid sodium salt induced by alkylperoxyl radicals, generated from the water soluble azo compound 2,2′-azobis(2-amidinopropane) dihydrochloride (AAPH). The assay was performed according to our previous publications. Trolox was used as reference compound.

[5] = biological target: T2, soybean lipoxygenase (Glycine max, UniProt P08170); assay: Soybean lipoxygenase inhibition study; type: biochemical; conditions: for inhibition at 100 µM: read-out: LOX % inhibition 100 μM; for IC50: soybean lipoxygenase, sodium linoleate 0.1 mM, read-out: LOX IC50
T2 construct: purchased Sigma Chemical, Co. (St. Louis, MO, USA)
T2 sequence (P08170 1-839): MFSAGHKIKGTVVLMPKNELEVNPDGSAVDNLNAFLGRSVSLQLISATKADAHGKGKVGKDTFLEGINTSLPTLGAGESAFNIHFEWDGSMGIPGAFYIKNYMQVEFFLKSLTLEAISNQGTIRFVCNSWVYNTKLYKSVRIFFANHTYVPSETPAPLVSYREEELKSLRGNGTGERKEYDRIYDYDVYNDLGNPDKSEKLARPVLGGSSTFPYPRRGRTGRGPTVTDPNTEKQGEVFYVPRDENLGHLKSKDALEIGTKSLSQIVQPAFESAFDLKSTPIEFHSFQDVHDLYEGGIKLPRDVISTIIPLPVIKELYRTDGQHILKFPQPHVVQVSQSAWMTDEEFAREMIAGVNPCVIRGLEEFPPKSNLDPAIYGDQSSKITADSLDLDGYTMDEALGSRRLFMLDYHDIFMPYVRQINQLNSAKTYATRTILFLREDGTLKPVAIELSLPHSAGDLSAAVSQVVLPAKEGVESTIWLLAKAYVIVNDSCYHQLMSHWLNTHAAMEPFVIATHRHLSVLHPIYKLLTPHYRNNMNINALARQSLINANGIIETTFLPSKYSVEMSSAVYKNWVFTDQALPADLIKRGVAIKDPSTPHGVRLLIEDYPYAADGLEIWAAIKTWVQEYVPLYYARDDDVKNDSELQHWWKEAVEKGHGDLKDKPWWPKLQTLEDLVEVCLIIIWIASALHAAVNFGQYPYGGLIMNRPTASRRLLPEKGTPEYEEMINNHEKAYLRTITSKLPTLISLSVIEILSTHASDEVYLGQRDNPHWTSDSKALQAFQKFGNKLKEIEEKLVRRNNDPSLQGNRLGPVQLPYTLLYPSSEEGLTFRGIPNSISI
Method: For the in vitro assays, a stock solution (1% DMSO in the appropriate buffer with the tested compound diluted under sonification) was prepared from which several dilutions were made with the appropriate buffer. DMSO solution of the tested compound (stock solutions 10 mM) was incubated with sodium linoleate (0.1 mM) and 0.2 mL of soybean lipoxygenase solution (1/9 × 10^−4 w/v in saline) at room temperature. The test follows our previous published methods. […] Several concentrations were used to determine the IC50.

[6] = biological target: mushroom tyrosinase (Agaricus bisporus, UniProt C7FF04); assay: Tyrosinase inhibition assay; type: biochemical; conditions: L-Dopa substrate; for inhibition at 100 µM: read-out: ΤyrI% 100 μM (inhibition of mushroom tyrosinase)
Sequence of mushroom tyrosinase (G1K3P4 entry or part of it): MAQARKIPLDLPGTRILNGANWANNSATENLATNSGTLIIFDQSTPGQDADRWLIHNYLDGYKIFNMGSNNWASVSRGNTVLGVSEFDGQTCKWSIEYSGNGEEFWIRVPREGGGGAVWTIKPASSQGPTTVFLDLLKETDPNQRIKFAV
Sequence of mushroom tyrosinase (C7FF04 1-392): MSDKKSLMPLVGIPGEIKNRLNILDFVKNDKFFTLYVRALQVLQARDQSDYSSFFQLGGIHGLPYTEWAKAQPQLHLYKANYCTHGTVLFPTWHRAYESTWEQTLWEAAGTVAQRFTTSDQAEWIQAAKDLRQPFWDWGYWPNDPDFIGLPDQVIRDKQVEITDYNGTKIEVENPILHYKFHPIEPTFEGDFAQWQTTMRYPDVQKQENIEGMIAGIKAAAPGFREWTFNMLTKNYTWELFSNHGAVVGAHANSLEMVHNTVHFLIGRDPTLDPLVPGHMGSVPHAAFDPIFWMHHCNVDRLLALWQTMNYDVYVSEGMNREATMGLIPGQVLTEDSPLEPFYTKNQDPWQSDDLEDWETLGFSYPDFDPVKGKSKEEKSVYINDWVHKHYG
Method: For the in vitro assays, a stock solution (1% DMSO in the appropriate buffer with the tested compound diluted under sonification) was prepared from which several dilutions were made with the appropriate buffer.

**Q.** Which “Writhing Inhibition (%)” value [1] does the source give for `CC(=O)Oc1ccccc1C(=O)O` [Aspirin, aspirin, reference compound] here?
**A.** 77%

**Q.** For `COc1ccc2c(c1)c(CC(=O)O)c(C)n2C(=O)c1ccc(Cl)cc1` [Indomethacin, reference compound], which “CPE (%) inhibition of carrageenin-induced rat paw edema” value [2] is on record?
**A.** 58 ** %

**Q.** With `O=C(N/C(=C\c1ccccc1)C(=O)N1CCOCC1)c1ccccc1` [Compound 3a, (Z)-N-(3-morpholino-3-oxo-1-phenylprop-1-en-2-yl)benzamide] as the molecule, how does the “Iptr% 10 µM (% trypsin inhibition)” value [3] read?
**A.** no

**Q.** What about the “AAPH% 100 µM (anti-lipid peroxidation)” value [4] of the same molecule?
**A.** 69%

**Q.** And the melting point?
**A.** 135 to 138 °C

**Q.** What about the inhibition at 100 µM ([5]; 100 µM) of the same molecule?
**A.** < 50%

**Q.** What about the IC50 [5] of the same molecule?
**A.** 100 µM

**Q.** What does the source list for `O=C1OC(c2ccccc2)=N/C1=C\c1ccc(OCc2ccc(Br)cc2)cc1` [Compound 2b, (Z)-4-(4-((4-Bromobenzyl)oxy)benzylidene)-2-phenyloxazol-5(4H)-one]?
**A.** AAPH% 100 µM (anti-lipid peroxidation) [4]: 79%; melting point: 199 to 200 °C; ΤyrI% 100 μM (inhibition of mushroom tyrosinase) [6]: no; LOX % inhibition 100 μM ([5]; 100 µM): no

**Q.** For `O=C(N/C(=C\c1cccs1)C(=O)N1CCCCC1)c1ccccc1` [Compound 5c, (Z)-N-(3-Oxo-3-(piperidin-1-yl)-1-(thiophen-2-yl)prop-1-en-2-yl)benzamide], which “AAPH% 100 µM (anti-lipid peroxidation)” value [4] is on record?
**A.** 72%

**Q.** What about the melting point of the same molecule?
**A.** 181 to 182 °C

**Q.** What about the inhibition at 100 µM [6] of the same molecule?
**A.** 13%

**Q.** What about the “LOX % inhibition 100 μM” value ([5]; 100 μM) of the same molecule?
**A.** 41%

**Q.** What about the inhibition at 100 µM ([5]; 100 µM) of the same molecule?
**A.** < 50%

**Q.** Which “Writhing Inhibition (%)” value [1] does the source give for `O=C(N/C(=C\c1cccs1)C(=O)N1CCN(C(=O)/C(=C/c2cccs2)NC(=O)c2ccccc2)CC1)c1ccccc1` [Compound 4c, N,N′-((1Z,1′Z)-piperazine-1,4-diylbis(3-oxo-1-(thiophen-2-yl)prop-1-ene-3,2-diyl))bisbenzamide] here?
**A.** 58%

**Q.** What about the “AAPH% 100 µM (anti-lipid peroxidation)” value [4] of the same molecule?
**A.** 93%

**Q.** What about the melting point of the same molecule?
**A.** 292 to 294 °C

**Q.** And the inhibition at 100 µM [6]?
**A.** 42%

**Q.** What about the “CPE (%) inhibition of carrageenin-induced rat paw edema” value [2] of the same molecule?
**A.** 56 ** % and 56%

**Q.** What about the IC50 [5] of the same molecule?
**A.** 41 µM

**Q.** Which results are given for `O=C(N/C(=C\c1ccccc1)C(=O)N1CCN(C(=O)/C(=C/c2ccccc2)NC(=O)c2ccccc2)CC1)c1ccccc1` [Compound 4a, N,N′-((1Z,1′Z)-piperazine-1,4-diylbis(3-oxo-1-phenylprop-1-ene-3,2-diyl))bisbenzamide]?
**A.** Writhing Inhibition (%) [1]: 32%; AAPH% 100 µM (anti-lipid peroxidation) [4]: 82%; melting point: 265 to 268 °C; inhibition at 100 µM [6]: 33%; CPE (%) inhibition of carrageenin-induced rat paw edema [2]: 44 * % and 44%; inhibition at 100 µM ([5]; 100 µM): 36%
